Laboratory results published in US11439623B2, “Method of modulating ribonucleotide reductase” (CASE WESTERN RESERVE UNIVERSITY, priority 2017, dated 2022).
“And” between values parts separate entries of the source, which are not always exact repeats. Equal values may be shown once. Read-outs that look alike come from different tables or passages of the source.

Columns and labels:
[1] = system: human colon cancer HCT116; experiment: Cancer cell line growth inhibition assay (DNA content); format: cell-based; details: for Cellular IC50s HCT-116: Table 1, triazole derivatives, one cell printed for both cell lines; for IC50: HCT-116; for activity in cell growth inhibition: HCT116, statement in text
Procedure: (§1) The growth inhibition assay was performed in the Preclinical Drug Testing Laboratory of the Case Comprehensive Cancer Center using a standardized protocol. Cell lines (human colon cancer HCT116 and human pancreas ductal adenocarcinoma Panc cells) were maintained in standard growth media; RPMI1640+10% FBS+2 mM glutamine+100 U/ml penicillin, 100 ug/ml streptomycin and shown to be negative for mycoplasma contamination using the MycoAlert™ Mycoplasma Detection kit (Lonza, Basel, Switzerland). Cell identity was verified by Short Tandem Repeat (STR) testing performed using the Promega StemElite kit, in the Genetic Resources Core Facility (GRCF) at Johns Hopkins University.
(§2) For growth inhibition assays, cells were harvested by trypsinization and seeded into 96-well tissue culture plates at 2500 cells/mL. The following day an equal volume of 2×-drug containing medium was added to each well. The cells were cultured for 3 additional days at 37° C. in a 5% CO2 humidified incubator. Cell growth was assessed by measuring DNA content per well using the method of Labarca and Paigen. Dye fluorescence was measured in a Perkin-Elmer 1420 Victor 3 Multilabel plate reader using 355 nm excitation and 460 nm emission.

[2] = system: human pancreas ductal adenocarcinoma Panc cells (Panc1); experiment: as above; format: cell-based; details: for Cellular IC50s Panc 1: Table 1, triazole derivatives, one cell printed for both cell lines; for activity in cell growth inhibition: Panc1, statement in text
Procedure: as §1, §2

[3] = system: normal mobilized peripheral blood progenitor cells; details: previously characterized; cited from earlier work
hRRM1 hexamers = molecular target: T1, hRRM1 hexamers (Homo sapiens, UniProt P23921); details: background statement; cited from earlier work
T1 sequence (P23921 1-792): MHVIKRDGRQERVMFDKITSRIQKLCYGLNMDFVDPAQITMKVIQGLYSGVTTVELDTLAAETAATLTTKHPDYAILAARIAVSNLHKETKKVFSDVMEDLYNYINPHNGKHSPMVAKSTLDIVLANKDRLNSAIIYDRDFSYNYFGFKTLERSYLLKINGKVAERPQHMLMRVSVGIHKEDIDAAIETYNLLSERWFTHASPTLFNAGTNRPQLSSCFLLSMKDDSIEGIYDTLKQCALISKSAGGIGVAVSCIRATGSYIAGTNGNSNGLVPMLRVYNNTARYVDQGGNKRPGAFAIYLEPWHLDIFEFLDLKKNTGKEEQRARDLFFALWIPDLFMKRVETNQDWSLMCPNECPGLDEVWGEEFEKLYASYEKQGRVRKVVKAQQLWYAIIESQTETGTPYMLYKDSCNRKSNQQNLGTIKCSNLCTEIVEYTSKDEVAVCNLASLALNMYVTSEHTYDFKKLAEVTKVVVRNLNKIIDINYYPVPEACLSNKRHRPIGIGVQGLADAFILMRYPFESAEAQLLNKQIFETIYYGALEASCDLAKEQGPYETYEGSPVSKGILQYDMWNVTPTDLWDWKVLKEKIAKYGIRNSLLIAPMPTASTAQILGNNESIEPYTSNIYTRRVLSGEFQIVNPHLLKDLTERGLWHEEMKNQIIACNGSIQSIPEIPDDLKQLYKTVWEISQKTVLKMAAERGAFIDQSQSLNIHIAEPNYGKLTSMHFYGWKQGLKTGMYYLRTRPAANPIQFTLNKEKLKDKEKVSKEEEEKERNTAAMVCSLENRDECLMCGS

[4] = Homo sapiens, Calcusyn fit, runs Oct. 21 and Oct. 24, 2016, read-out: Dm
[5] = Homo sapiens, PANC-1, Panc1, Calcusyn fit, runs Oct. 21 and Oct. 24, 2016, read-out: Dm
[6] = Homo sapiens, Table 2, oxadiazoles, read-out: Cellular IC50s HCT-116
[7] = Homo sapiens, PANC-1, Table 2, oxadiazoles, read-out: Cellular IC50s Panc 1

Structure (SMILES)	Cellular IC50s HCT-116 [1]	Cellular IC50s Panc 1 [2]	IC50 [1, 4] [nM]	IC50 [2, 5] [nM]	other results
COc1ccc2cc(-c3cn(Cc4ccccc4)nn3)ccc2c1	No cytotoxicity	No cytotoxicity	–	–	–
COc1ccc2cc(-c3cn(CCc4ccc(O)cc4)nn3)ccc2c1	No cytotoxicity	No cytotoxicity	–	–	–
O=C(O)CC(c1ccccc1)n1cc(-c2c(O)ccc3ccccc23)nn1 (stereo not drawn)	No cytotoxicity	No cytotoxicity	–	–	–
C[C@@H]([C@H](O)c1ccccc1)n1cc(-c2c(O)ccc3ccccc23)nn1	No cytotoxicity	No cytotoxicity	–	–	–
Cc1c(-n2cc(-c3c(O)ccc4ccccc34)nn2)c(=O)n(-c2ccccc2)n1C	No cytotoxicity	No cytotoxicity	–	–	–
O=C(NN=Cc1c(O)ccc2ccccc12)c1ccccc1O [NSAAH, Naphthyl Salicyl Acyl Hydrazone, reference compound]	–	–	–	–	IC50 ([1]; Calcusyn fit, runs Oct. 21 and Oct. 24, 2016, listed as NSAAH (new), read-out: Dm): 176 nM; IC50 ([1]; Calcusyn fit, runs Oct. 21 and Oct. 24, 2016, listed as NSAAH (old), read-out: Dm): 234 nM and 166 nM; IC50 ([2]; Panc1, Calcusyn fit, runs Oct. 21 and Oct. 24, 2016, listed as NSAAH (new), read-out: Dm): 850 nM; IC50 ([2]; Panc1, Calcusyn fit, runs Oct. 21 and Oct. 24, 2016, listed as NSAAH (old), read-out: Dm): 550 nM and 480 nM; cytotoxicity [3]: little measurable cytotoxicity
NC1(c2cn([C@H](c3ccccc3)[C@H](O)c3ccccc3)nn2)CCCCC1 [NSAAT E]	–	–	66800	> 10000	–
O=C(c1c(O)ccc2ccccc12)n1cc(-c2cccnc2)nn1 [NSAAT F]	–	–	> 10000	> 10000	–
Oc1ccccc1-c1nnc(-c2c(O)ccc3ccccc23)o1 [Oxa A]	–	–	6890	53600	activity in cell growth inhibition [1]: low micromolar range; IC50 [1, 6]: 3200 nM; IC50 [2, 7]: 7000 nM; activity in cell growth inhibition [2]: low micromolar range
Oc1ccc2ccccc2c1-c1nnc(-c2cccnc2)o1 [Oxa F]	–	–	1410	1920	activity in cell growth inhibition [1]: low micromolar range; IC50 [1, 6]: 1200 nM; IC50 [2, 7]: 2500 nM; activity in cell growth inhibition [2]: low micromolar range
Nc1nc(Cl)nc2c1ncn2[C@@H]1O[C@H](CO)[C@@H](O)[C@@H]1F [clofarabine, 2′-fluro-2′-deoxyarabinofuranosyl-2-chloroadenine]	–	–	–	–	binding affinity (hRRM1 hexamers): nanomolar affinity
NC1(c2cn([C@H](c3ccccc3)[C@H](O)c3ccccc3)nn2)CCCCC1 [drawing 59]	No cytotoxicity	No cytotoxicity	–	–	–
O=C(c1c(O)ccc2ccccc12)n1cc(-c2cccnc2)nn1 [drawing 60]	No cytotoxicity	No cytotoxicity	–	–	–
